The values that follow come from PubChem BioAssay (NCI).

Molecules are shown by their SMILES.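 48-hour exposure; five concentrations; linearly interpolated endpoints. At the GI50, growth is halved. TGI: concentration producing complete growth inhibition.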

What all share (experiment): NCI tumour cell line growth inhibition, 48 h
Test [1] concerns PC-3 prostate.
Test [2] has as its system SK-MEL-5 melanoma.
The subject of test [3] is M14 melanoma.
In test [4] the test system is SF-539 CNS.
Test [5] has as its system OVCAR-8 ovarian.
Test [6] relates to COLO 205 colon.
The test system of test [7] is HCC-2998 colon.
The test system of test [8] is U251 CNS.
In test [9] the test system is HS 578T breast.
Test [10] has as its system CCRF-CEM leukemia.

`CC1OC(OC2C(OC(=O)[C@@H]3CC(C)(C)C[C@H]4C5=CC[C@@H]6[C@@]7(C)C[C@H](O)[C@H](OC8OC(CO)C(O)C(O)C8O)[C@@](C)(CO)[C@@H]7[C@H](O)C[C@@]6(C)[C@]5(C)CC[C@@]34C)OCC(O)C2O)C(O)C(O)C1O` (some centres undefined): the TGI in [1], in test [2], in test [3], in [4], in test [5] and in test [6] was greater than 7.5 µM each time. Further, the TGI in test [7], in test [8], in test [9] and in [10] was greater than 7.5 µM throughout.
For `CC1OC(O[C@H]2/C=C/C=C/C=C/C=C/C=C/C=C/C=C/[C@H](C)[C@@H](O)[C@@H](C)[C@H](C)OC(=O)CC(O)CC(O)CCC(O)C(O)CC(O)C[C@]3(O)C[C@H](O)C(C(=O)O)C(C2)O3)C(O)[C@H](N)C1O` (some centres undefined), the GI50 in test [1] is 1.81 µM; in test [2] it was 3.51 µM; in test [3] it was 2.57 µM; in test [4], 2.92 µM; in [5], 2.9 µM; in test [6], 4.19 µM. Also, the GI50 is 5.36 µM in test [7], 1.88 µM in [8] and 2.39 µM in [9]. For the same compound, the TGI in test [1] was 3.92 µM; in test [2], 12.8 µM; in test [3], 5.96 µM; in test [4], 11.6 µM; in test [5] it was 9.86 µM; in [6], 17.2 µM. The TGI in test [7] was 18.7 µM; in [8], 3.79 µM; in test [9], 8.25 µM; in test [10], greater than 100 µM.
Take `O[C@H]1[C@H](O)[C@@H](O)[C@@]2(O)C[C@@H](O)[C@@H]1N2`: the TGI in test [1], in [2], in [3], in test [4], in test [5] and in test [6] was greater than 100 µM throughout. Also, the TGI in test [7], in test [8], in test [9] and in test [10] was greater than 100 µM each time.
For the compound `COc1cc([C@@H]2c3cc(O)c(OC)cc3C=C(C(N)=O)[C@H]2C(N)=O)ccc1O`, the TGI in test [1], in [2], in [3], in [4], in [5] and in [6] was greater than 100 µM in each case. The TGI in test [7], in test [8], in [9] and in test [10] was greater than 100 µM in each case.
Consider `COc1ccc(/C=C2\CN(C)C/C(=C\c3ccc(OC)c(OC)c3OC)C2=O)c(OC)c1OC`, for which the TGI in test [1] stood at 1.43 µM; in test [2], 0.705 µM; in test [3] it was 0.283 µM; in [4], 0.311 µM; in test [5], 0.343 µM; in test [6] it was 0.287 µM. The TGI was 0.335 µM in test [7], 0.177 µM in test [8], greater than 100 µM in test [9] and 0.0805 µM in [10].
On to `CSCCC(NC(=O)Cc1ccc(C(=O)c2ccccc2)cc1)C(=O)O` (centres undefined), for which the TGI in test [1], in test [2], in test [3], in test [4], in test [5] and in test [6] was greater than 100 µM throughout. Moreover, the TGI in test [7], in [8], in test [9] and in test [10] was greater than 100 µM each time.
As to `COC(=O)C1=C(C)N2[C@H](C(=O)O)CO[C@@]2(C)[C@H](C(=O)OC)[C@H]1c1cccc([N+](=O)[O-])c1`, the TGI in [1], in test [2], in test [3], in [4], in [5] and in [6] was greater than 100 µM each time. Moreover, the TGI in test [7], in test [8], in [9] and in test [10] was greater than 100 µM throughout.
Consider `CC(=O)OCC1OC(n2c(=O)[nH]c(=O)c3sccc32)C(Br)C1OC(C)=O` (centres undefined), for which the TGI in test [1], in test [2], in test [3], in test [4], in [5] and in test [6] was greater than 100 µM each time. Besides, the TGI in [7], in [8], in [9] and in test [10] was greater than 100 µM throughout.
Consider `COC(=O)C1=C(OC(=O)c2ccccc2)C(C(=O)OC)[C@]2(O)[C@@H](C(=O)OC)[C@H]1C[C@@H](c1ccccc1)[C@@H]2C(=O)OC` (some centres undefined), for which the TGI was 23.7 µM in [1]; 17.4 µM in [2]; 9.57 µM in [3]; 14.6 µM in test [4]; 20.3 µM in test [5]; 21.8 µM in [6]. Besides, the TGI in [7] is 25 µM; in [8], 20.8 µM; in [9] it was 72.2 µM; in test [10], 10.6 µM.
Turning to `N#C/C(=C\c1c[nH]c2ccccc12)C(=O)c1ccc(O)c(O)c1`, the TGI was greater than 100 µM in [1]; greater than 100 µM in test [2]; greater than 100 µM in [3]; greater than 83.7 µM in [4]; greater than 100 µM in [5]; greater than 67.7 µM in test [6]. Moreover, the TGI in test [7] was greater than 100 µM; in test [8], greater than 100 µM; in [9], greater than 100 µM; in [10], greater than 36.2 µM.
As to `Cc1nc(-c2ccc(N=Cc3ccc(N(CCOS(C)(=O)=O)CCOS(C)(=O)=O)cc3C)cc2)cs1`, the TGI in [1] is greater than 100 µM; in test [2], 38.5 µM; in test [3] it was greater than 100 µM; in [4], 8.84 µM; in test [5], greater than 100 µM; in test [6], greater than 100 µM. Moreover, the TGI in [7], in [8], in [9] and in [10] was greater than 100 µM each time.
For `CCC1(COC(NC(=O)c2ccccc2)(C(F)(F)F)C(F)(F)F)COC1`, the TGI in [1], in [2], in test [3], in [4], in [5] and in [6] was greater than 100 µM each time. For the same compound, the TGI in test [7], in [8], in test [9] and in test [10] was greater than 100 µM throughout.
In the case of `COc1nc(N)c(N=CC(OC(C)=O)C(OC(C)=O)C(COC(C)=O)OC(C)=O)c(=O)n1C` (centres undefined), the TGI in test [1], in [2], in test [3], in test [4], in test [5] and in [6] was greater than 100 µM in each case. Besides, the TGI in test [7], in [8], in test [9] and in test [10] was greater than 100 µM throughout.
As to `CCNC1=C(NC(=O)CC)C(=O)c2ccccc2C1=O`, the TGI in [1] is greater than 100 µM; in [2], greater than 100 µM; in [3] it was 98.5 µM; in test [4] it was greater than 100 µM; in [5], greater than 100 µM; in test [6], greater than 100 µM. Further, the TGI in [7], in test [8], in test [9] and in test [10] was greater than 100 µM throughout.
`Cc1ccc(/C(O)=C/C(=O)C(=O)NN=C(c2ccccc2)c2ccccc2)cc1`: the TGI in test [1], in test [2], in [3], in test [4], in [5] and in test [6] was greater than 100 µM in each case. Further, the TGI in test [7], in [8], in [9] and in [10] was greater than 100 µM throughout.
As for `O=C1C[C@@H](c2ccccc2)O[C@@H](c2ccccc2)C1`, the TGI in test [1], in test [2], in test [3], in test [4], in test [5] and in test [6] was greater than 100 µM each time. The TGI in [7], in test [8], in test [9] and in [10] was greater than 100 µM throughout.
For the compound `O=C(Nc1cccc(F)c1)c1cc2ccc(O)cc2oc1=Nc1ccccc1F`, the TGI in test [1] is 24.3 µM; in [2], 9.57 µM; in test [3], 17.4 µM; in test [4], 27 µM; in [5], 5.85 µM; in [6], 41.7 µM. The TGI was 28.7 µM in test [7], 13.4 µM in [8], 14.1 µM in [9] and 6.42 µM in [10].
Turning to `C[C@H]1C=C2[C@@H]3CC(C)(C(=O)O)CC[C@]3(C)CC[C@]2(C)[C@]2(C)CC[C@H]3C(C)(C)[C@@H](OC(=O)c4cccc5c(=O)c6ccccc6[nH]c45)CC[C@]3(C)[C@@H]12` (some centres undefined), the TGI in test [1], in test [2], in test [3], in test [4], in test [5] and in test [6] was greater than 100 µM in each case. Also, the TGI in [7], in test [8], in test [9] and in test [10] was greater than 100 µM in each case.
Turning to `c1ccc2c3c([nH]c2c1)C1CCCN1CC3` (centres undefined), the TGI in test [1], in [2], in [3], in [4], in test [5] and in [6] was greater than 10 µM throughout. Also, the TGI in test [7], in [8], in test [9] and in [10] was greater than 10 µM in each case.
Take `COc1cc(C(c2ccc3c(c2)OCO3)N2C(=O)CCC2C(=O)O)cc(OC)c1OC` (centres undefined): the TGI in test [1], in [2], in [3], in test [4], in [5] and in test [6] was greater than 100 µM each time. Besides, the TGI in test [7], in test [8], in [9] and in test [10] was greater than 100 µM throughout.
In the case of `OC(c1ccc(-c2ccccc2)cc1)C(F)(F)c1nc2ccccc2o1` (centres undefined), the TGI in test [1] was greater than 100 µM; in test [2] it was greater than 100 µM; in test [3] it was greater than 100 µM; in test [4], greater than 72.3 µM; in [5] it was greater than 93.1 µM; in [6] it was greater than 100 µM. Also, the TGI in [7] was greater than 100 µM; in test [8], greater than 100 µM; in [9], 70.2 µM; in test [10] it was greater than 100 µM.
As to `COc1cccc(N2C(=O)C3c4[nH]c5ccc(C)cc5c4C4CCC(C(C)(C)C)CC4C3C2=O)c1` (centres undefined), the TGI is greater than 10 µM in [1]; greater than 10 µM in [2]; greater than 10 µM in test [3]; 7.41 µM in test [4]; 5.85 µM in [5]; greater than 10 µM in test [6]. The TGI in test [7] was greater than 10 µM; in test [8] it was greater than 10 µM; in test [9], greater than 10 µM; in test [10], 7.57 µM.
`CC[C@@H](/C=C\CCC(=O)C[C@H](O)CCC=C(C)C)O[Si](C(C)C)(C(C)C)C(C)C`: the TGI in test [1], in test [2], in test [3], in test [4], in test [5] and in test [6] was greater than 100 µM each time. Besides, the TGI in test [7], in test [8], in test [9] and in test [10] was greater than 100 µM throughout.
As to `COC(=O)c1c(O)ccc2c1C1(Cc3ccccc3C1=O)C(O)O2` (centres undefined), the TGI in test [1] was 92.2 µM; in [2], greater than 100 µM; in test [3], 52.2 µM; in test [4], 55.7 µM; in test [5], 36.7 µM; in [6] it was greater than 100 µM. Further, the TGI worked out at 69.9 µM in test [7], 61.4 µM in test [8], 61 µM in test [9] and 11.7 µM in test [10].
